From PubChem BioAssay (NCI)
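Growth conditions: 96-well plates. Treatment: test compound, 48 hours, 5 concentrations. Analysis: linear interpolation between bracketing concentrations; unreached endpoints set to highest concentration. GI50 marks 50% less growth. The concentration for full growth arrest is given as TGI.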

Assays:
Test in all cases: DTP human tumour cell line panel, 48 h
[1] = system: MOLT-4 leukemia
[2] = system: A498 renal
[3] = system: SNB-19 CNS
[4] = system: LOX IMVI melanoma
[5] = system: OVCAR-3 ovarian
[6] = system: SK-OV-3 ovarian
[7] = system: M14 melanoma
[8] = system: TK-10 renal
[9] = system: PC-3 prostate
[10] = system: HCC-2998 colon

SMILES | GI50 [1] [µM] | TGI [1] [µM] | GI50 [2] [µM] | TGI [2] [µM] | GI50 [3] [µM] | TGI [3] [µM] | GI50 [4] [µM] | TGI [4] [µM] | GI50 [5] [µM] | TGI [5] [µM] | GI50 [6] [µM] | TGI [6] [µM] | GI50 [7] [µM] | TGI [7] [µM] | GI50 [8] [µM] | TGI [8] [µM] | GI50 [9] [µM] | TGI [9] [µM] | GI50 [10] [µM] | TGI [10] [µM]
CCOC(=O)c1cc(-c2ccccc2)[nH]c1N/N=C/c1c(Cl)cccc1Cl | 4.24 | 24.3 | 1.08 | 43.7 | 3.06 | > 60.4 | 3.05 | > 100 | 0.248 | 1.04 | 2.4 | > 100 | 1.71 | 25.3 | 13.2 | > 87.8 | 0.502 | 37.5 | 1.01 | 7.48
O=C1NC(=N[C@H](CO)c2ccccc2)S/C1=C\c1ccc2ncccc2c1 | 4.47 | 14.8 | 2.07 | 7.13 | 3.73 | > 25 | 2.41 | 22 | 4.13 | 13.7 | 5.11 | 17.6 | 7.46 | > 25 | 1.95 | 20 | 4.07 | > 25 | 7.96 | > 25
Nc1ccc(C(=O)Nc2ccccc2N)cc1 |  | 73.7 |  | > 100 |  | > 100 |  | > 75.8 |  | > 100 |  | > 100 |  | > 100 |  | > 63.1 |  | > 100 |  | > 100
FC(F)(F)c1ccc(NCc2nc3ccccc3[nH]2)cc1 | 21.6 | 63 | 12.4 | 46.2 | 34.3 | > 100 | 23.2 | > 100 | 21.9 | 62.2 | 45.5 | > 100 | 24.7 | > 100 | 38.2 | > 100 | 18.8 | 75.8 | 23.8 | 73.5
COc1ccc(/C=C2\CCC(Cc3ccccc3)(CN(C)C)C2=O)cc1 (stereo not given) |  | > 81.2 |  | > 100 |  | > 100 |  | 57.5 |  | > 100 |  | > 100 |  | 66.2 |  | > 100 |  | > 100 |  | > 100
N[C@@H](CSSC[C@H](N)C(=O)N1CCn2cc(-c3ccccc3)nc2[C@@H]1CC1CCCCC1)C(=O)N1CCn2cc(-c3ccccc3)nc2[C@@H]1CC1CCCCC1 | 1.74 | > 21.4 | 2.68 | 5.39 | 1.36 | 2.85 | 1.34 | 2.99 | 1.41 | 2.76 | 1.59 | 5.42 | 0.301 | 1.23 | 2.05 | 4.45 | 2.91 | 9.62 | 1.66 | 3.17
CC(C)[C@H](C(=O)O[C@@H]1/C=C/C(=O)O[C@@H](C)CCC/C=C/[C@@H]2C[C@H](O)C[C@H]21)N(C)C | 14.9 | 42.2 | 2.08 | 6.62 | 30.2 | > 100 | 9.59 | 26.9 | 8.54 | 37.8 | 17.9 | > 96.7 | 11.1 | > 63.8 | 14.7 | 60.8 | 10.9 | > 57.8 | 12.9 | 62.2
COc1ccc2c(c1)C(=O)c1c-2c(N2CCN(C(=O)CCNCCNCCO)CC2)nc2ccccc12 | 5.05 | 22.9 | 18.7 | 34.4 | 17.5 | 38 | 12.3 | 31.6 | 20.6 | 43.2 | 15.9 | 30.9 | 11.8 | 24.1 | 22.5 | 43.1 | 13.2 | 27.9 | 13.8 | 30.1
COc1cc(/C=C/c2ccccn2)cc(OC)c1OC |  | > 10 |  | > 10 |  | > 10 |  | > 10 |  | > 10 |  | > 10 |  | > 10 |  | > 10 |  | > 10 |  | > 10
COc1cc(Cn2c(SCC(=O)Nc3ccc(Cl)cc3)nc3ccccc3c2=O)cc(OC)c1OC | > 100 | > 100 | 2.42 | 12.2 | 6.8 | 26 | 13.5 | > 100 | 7.86 | 31 | 4.2 | 16.7 | 16.5 | 86.4 | 2.63 | 7.67 | 16.7 | > 100 | 26.6 | > 100
COc1cc(NC(C)CCCN2C(=O)c3ccccc3C2=O)c2ncccc2c1OC (stereo not given) | 38.3 | > 100 | 34.4 | > 100 | 67.7 | > 100 | 28.2 | > 100 | 25.8 | > 100 | > 100 | > 100 | 30.5 | > 100 | 40.5 | > 100 | 24.9 | 71.1 | 33.1 | > 100
